Values after ≈ are worked out from the molar mass of the structure shown. Positions of bridges follow the written chain, without caps; N, C: chain ends. Non-standard residues stand in square brackets, D forms with d. Residues, ends and D or L forms follow the SMILES beside them. *: point of attachment. X36 = O=C(c1cc(C(F)(F)F)cc(C(F)(F)F)c1)*; Benzoyl(4-Me) = Cc1ccc(C(=O)*)cc1; X30 = Cc1cc(C)c(C(=O)*)c(C)c1; X32 = Cc1ccc(C(=O)*)c(Cl)c1; X29 = Cc1cc(C)cc(C(=O)*)c1; Dab = NCC[C@H](N)C(=O)O; Abu = CC[C@H](N)C(=O)O; Dap = NC[C@H](N)C(=O)O
Key:
[1] = test system: Pseudomonas aeruginosa
Procedure, shortened: (§1)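 Lipopeptides, as trifluoroacetate salts, tested for MIC in CAMHB by CLSI broth microdilution, with polymyxin B (sulphate) as comparator.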

[2] = test system: Enterobacter cloacae
Procedure, shortened: as §1

[3] = test system: Acinetobacter baumannii
Procedure, shortened: as §1

Structure (SMILES)	Minimum inhibitory concentration, Pa ATCC 27853 [1]	Minimum inhibitory concentration, Pa FADDI-PA022 [1]	Minimum inhibitory concentration, Pa FADDI-PA025 [1]	Minimum inhibitory concentration, Ec FADDI-EC001 [2]	Minimum inhibitory concentration, Ec FADDI-EC003 [2]	Minimum inhibitory concentration, Ec FADDI-EC006 [2]	Minimum inhibitory concentration, Ab A ATCC 17978 [3]	Minimum inhibitory concentration, Ab ATCC 19606 [3]	Minimum inhibitory concentration, Ab FADDI-AB034 [3]
CC[C@@H]1NC(=O)[C@@H](CC(C)C)NC(=O)[C@H](CCN)NC(=O)[C@@H](NC(=O)[C@H](CN)NC(=O)[C@@H](NC(=O)[C@H](CCN)NC(=O)c2c(C)cc(C)cc2C)[C@@H](C)O)CCNC(=O)[C@H]([C@@H](C)O)NC(=O)[C@H](CCN)NC(=O)[C@H](CCN)NC1=O [Compound 92] (X30-[Dab]T[Dap][Dab][Dab][dL][Abu][Dab][Dab]T; lactam 4-C)	0.5 µg/mL (≈ 0.441 µM)	0.5 µg/mL (≈ 0.441 µM)	4 µg/mL (≈ 3.53 µM)	<0.125 µg/mL	0.25 µg/mL (≈ 0.221 µM)	2 µg/mL (≈ 1.76 µM)	0.5 µg/mL (≈ 0.441 µM)	4 µg/mL (≈ 3.53 µM)	4 µg/mL (≈ 3.53 µM)
CC[C@@H]1NC(=O)[C@@H](CC(C)C)NC(=O)[C@H](CCN)NC(=O)[C@@H](NC(=O)[C@H](CN)NC(=O)[C@@H](NC(=O)[C@H](CCN)NC(=O)c2cc(C)cc(C)c2)[C@@H](C)O)CCNC(=O)[C@H]([C@@H](C)O)NC(=O)[C@H](CCN)NC(=O)[C@H](CCN)NC1=O [Compound 93] (X29-[Dab]T[Dap][Dab][Dab][dL][Abu][Dab][Dab]T; lactam 4-C)	2 µg/mL (≈ 1.79 µM)	4 µg/mL (≈ 3.57 µM)	2 µg/mL (≈ 1.79 µM)	0.25 µg/mL (≈ 0.223 µM)	1 µg/mL (≈ 0.893 µM)	4 µg/mL (≈ 3.57 µM)	0.5 µg/mL (≈ 0.447 µM)	1 µg/mL (≈ 0.893 µM)	0.5 µg/mL (≈ 0.447 µM)
CC[C@@H]1NC(=O)[C@@H](CC(C)C)NC(=O)[C@H](CCN)NC(=O)[C@@H](NC(=O)[C@H](CN)NC(=O)[C@@H](NC(=O)[C@H](CCN)NC(=O)c2cc(C(F)(F)F)cc(C(F)(F)F)c2)[C@@H](C)O)CCNC(=O)[C@H]([C@@H](C)O)NC(=O)[C@H](CCN)NC(=O)[C@H](CCN)NC1=O [Compound 97] (X36-[Dab]T[Dap][Dab][Dab][dL][Abu][Dab][Dab]T; lactam 4-C)	0.5 µg/mL (≈ 0.407 µM)	0.5 µg/mL (≈ 0.407 µM)	1 µg/mL (≈ 0.815 µM)	0.5 µg/mL (≈ 0.407 µM)	0.25 µg/mL (≈ 0.204 µM)	0.5 µg/mL (≈ 0.407 µM)	<0.125 µg/mL	0.5 µg/mL (≈ 0.407 µM)	0.25 µg/mL (≈ 0.204 µM)
CC[C@@H]1NC(=O)[C@@H](CC(C)C)NC(=O)[C@H](CCN)NC(=O)[C@@H](NC(=O)[C@H](CN)NC(=O)[C@@H](NC(=O)[C@H](CCN)NC(=O)c2ccc(C)cc2)[C@@H](C)O)CCNC(=O)[C@H]([C@@H](C)O)NC(=O)[C@H](CCN)NC(=O)[C@H](CCN)NC1=O [Compound 98] ({Benzoyl(4-Me)}-[Dab]T[Dap][Dab][Dab][dL][Abu][Dab][Dab]T; lactam 4-C)	0.5 µg/mL (≈ 0.452 µM)	0.5 µg/mL (≈ 0.452 µM)	2 µg/mL (≈ 1.81 µM)	1 µg/mL (≈ 0.905 µM)	0.25 µg/mL (≈ 0.226 µM)	2 µg/mL (≈ 1.81 µM)	2 µg/mL (≈ 1.81 µM)	2 µg/mL (≈ 1.81 µM)	2 µg/mL (≈ 1.81 µM)
CC[C@@H]1NC(=O)[C@@H](CC(C)C)NC(=O)[C@H](CCN)NC(=O)[C@@H](NC(=O)[C@H](CN)NC(=O)[C@@H](NC(=O)[C@H](CCN)NC(=O)c2ccc(C)cc2Cl)[C@@H](C)O)CCNC(=O)[C@H]([C@@H](C)O)NC(=O)[C@H](CCN)NC(=O)[C@H](CCN)NC1=O [Compound 101] (X32-[Dab]T[Dap][Dab][Dab][dL][Abu][Dab][Dab]T; lactam 4-C)	0.5 µg/mL (≈ 0.439 µM)	2 µg/mL (≈ 1.75 µM)	2 µg/mL (≈ 1.75 µM)	<0.125 µg/mL	<0.125 µg/mL	0.25 µg/mL (≈ 0.219 µM)	0.5 µg/mL (≈ 0.439 µM)	0.5 µg/mL (≈ 0.439 µM)	1 µg/mL (≈ 0.877 µM)

— patent publication USRE48335E1, “Polymyxin derivatives as antimicrobial compounds” (priority 2014, dated 2020)
